Data as given in PMC8467962, “Design and Synthesis of Water-Soluble and Potent MMP-13 Inhibitors with Activity in Human Osteosarcoma Cells” (International Journal of Molecular Sciences, 2021).
Values after ≈ are worked out from the molar mass of the structure shown. Where two headings read alike, the source gives them in different places.

Legend:
MMP-13 catalytic domain = MMP-13 catalytic domain (Homo sapiens, UniProt P45452); assay: WaterLOGSY NMR experiment; settings: 5 μM protein, 0.15 mM ligand, 25 °C
[1] = biological target: commercially available MMP-13 active protein (Homo sapiens, UniProt P45452); assay: Enzymatic activity of commercial MMP-13, dose response of BiPS; type: biochemical
From the text: (§1) Figure S5. PyMOL stick and cartoon representation of the bidentate interaction established by the hydroxamate and the catalytic Zinc ion in both MMP-13 (left) and MMP-2 (right). Hydrogen bonds are shown in dashed lines, the catalytic zinc ion is shown as grey sphere. For the sake of clarity, no hydrogens are shown.
(§2) Figure S6. SDS-PAGE analysis of the recombinantly expressed catalytic dom ain of MMP-13 purified by metal affinity chromatography. M corresponds to the molecular weight markers ( k D a ) . […]
(§3) Log(BiPS [M]) Log(BiPS [M])
(§4) Figure S7. Dose response curve used to determine IC50 of BiPS for A) recombinantly expressed catalytic domain of MMP-13, and B) commercially available MMP-13 active protein. […]

[2] = biological target: T1, recombinantly expressed catalytic domain of MMP-13 (Homo sapiens, UniProt P45452); assay: Enzymatic activity of recombinantly expressed MMP-13 catalytic domain, dose response of BiPS; type: biochemical; settings: recombinantly expressed catalytic domain of MMP-13, after refolding
T1 construct: containing the catalytic site (amino acid residues −104 to 274); TEV cleavage site (C); 6xHis (C); made in house; host or cells: Escherichia coli BL21-DE3 pLys S
From the text: To this end, a recombinantly expressed catalytic domain of MMP-13 was purified under denaturing conditions (Figure S6); the process lead to a very pure sample preparation.
as §1, §2, §3, §4

[3] = Thermodynamic solubility (shake flask method); type: physicochemical; settings: phosphate buffer, aqueous buffer, thermodynamic from solid; PBS pH 7.4, shake flask, room temperature; read-out: Experimental Water Solubility LogS (converted)
Protocol: The samples were sonicated for 10 min and shaken overnight at 800 rpm (FB15013 TopMix, Fischer Scientific, Waltham, MA, USA) at room temperature. A first phase separation of supernatant and undissolved solid was performed by centrifugation at 5000 rpm for 20 min (Biofuge primo R). The supernatant was then transferred into Eppendorf tubes for a second centrifugation. An adequate dilution was made using the particle-free supernatant and the concentration quantified by LC-HRMS using a 4-point calibration curve (Agilent 1260 Infinity II).
PART A. Calibration curves of compounds for solubility
9e, 10a-e), 4-points calibration curves were made for each compound. Calibrations curves were obtained using four different concentrations of the corresponding compound (0.1 mg/mL, 0.01 mg/mL, 0.001 mg/mL and 0.0001 mg/mL). All samples were prepared in DMSO and measured in a LC-HRMS (Agilent 1260 Infinity II).
Figure S1. Calibration curves of all active compounds (solubility studies) (1, 2, 9a, 9e, 10a-e) […]

MMP-2 [4] = biological target: T2, MMP-2 (Homo sapiens, UniProt P08253); design: method as in PMID 30629065; settings: previous work; read-out: MMP-2 IC50; cited from earlier work
T2 construct: the catalytic domains of the corresponding MMP were incubated in triplicate; purchased Enzo Life Science International, Inc

MMP-10 = biological target: T3, MMP-10 (Homo sapiens, UniProt P09238); assay: MMP inhibition assay (MMP Inhibitor Profiling Kit, thiopeptide substrate), MMP-10; type: biochemical; settings: panel of MMPs
T3 construct: the catalytic domains of the corresponding MMP were incubated in triplicate; purchased Enzo Life Science International, Inc
Protocol: (§5) MMP activity measurements were performed using an MMP Inhibitor Profiling Kit purchased from Enzo Life Science International, Inc. (Farmingdale, NY, USA), and following the manufacturer’s protocol with slight modifications. Proteolytic activity was measured using a thiopeptide substrate (Ac-PLG-[2-mercapto-4-methylpentanoyl]-LG-OC2H5) where the MMP cleavage site peptide bond has been replaced by a thioester bond. Hydrolysis of this bond by MMPs produces a sulfhydryl group that reacts with DTNB to form 2-nitro-5-thiobenzoic acid, which was detected by its absorbance at 414 nm (microplate photometer 90 Thermo Scientific Multiscan FC).
(§6) Enzyme reactions were carried out at 37 °C in a 100 μL final volume of solutions, where the catalytic domains of the corresponding MMP were incubated in triplicate with at least seven concentrations of inhibitors. The assay buffer contained the following components: 50 mM HEPES, 10 mM CaCl2 95, 0.05% Brij-35, and 1 mM DTNB at pH 7.5. After addition of the substrate, the increase of absorbance was recorded in 1 min time intervals for 30 min. Data were plotted as OD versus time for each sample to obtain the reaction velocity (V) in OD per min. The percentage of residual activity for each compound was calculated using the following formula: % of remaining activity = (V in the presence of inhibitor/Vcontrol) × 100. […]

MMP-14 = biological target: T4, MMP-14 (Homo sapiens, UniProt P50281); assay: MMP inhibition assay (MMP Inhibitor Profiling Kit, thiopeptide substrate), MMP-14; type: biochemical; settings: panel of MMPs
T4 construct: the catalytic domains of the corresponding MMP were incubated in triplicate; purchased Enzo Life Science International, Inc
Protocol: as §5, §6

MMP-7 = biological target: T5, MMP-7 (Homo sapiens, UniProt P09237); assay: MMP inhibition assay (MMP Inhibitor Profiling Kit, thiopeptide substrate), MMP-7; type: biochemical; settings: panel of MMPs
T5 construct: the catalytic domains of the corresponding MMP were incubated in triplicate; purchased Enzo Life Science International, Inc
T5 sequence (P09237 95-267): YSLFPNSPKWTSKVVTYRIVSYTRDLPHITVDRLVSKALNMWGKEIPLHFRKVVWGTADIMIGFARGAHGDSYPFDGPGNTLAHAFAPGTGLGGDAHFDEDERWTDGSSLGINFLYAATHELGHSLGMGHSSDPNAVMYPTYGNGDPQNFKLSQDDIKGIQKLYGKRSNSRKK
Protocol: as §5, §6

MMP-8 = biological target: T6, MMP-8 (Homo sapiens, UniProt P22894); assay: MMP inhibition assay (MMP Inhibitor Profiling Kit, thiopeptide substrate), MMP-8; type: biochemical; settings: panel of MMPs
T6 construct: the catalytic domains of the corresponding MMP were incubated in triplicate; purchased Enzo Life Science International, Inc
Protocol: as §5, §6

MMP-3 = biological target: T7, MMP-3 (Homo sapiens, UniProt P08254); assay: MMP inhibition assay (MMP Inhibitor Profiling Kit, thiopeptide substrate), MMP-3; type: biochemical; settings: panel of MMPs
T7 construct: the catalytic domains of the corresponding MMP were incubated in triplicate; purchased Enzo Life Science International, Inc
Protocol: as §5, §6

MMP-12 = biological target: T8, MMP-12 (Homo sapiens, UniProt P39900); assay: MMP inhibition assay (MMP Inhibitor Profiling Kit, thiopeptide substrate), MMP-12; type: biochemical; settings: panel of MMPs
T8 construct: the catalytic domains of the corresponding MMP were incubated in triplicate; purchased Enzo Life Science International, Inc
Protocol: as §5, §6

MMP-9 = biological target: T9, MMP-9 (Homo sapiens, UniProt P14780); assay: MMP inhibition assay (MMP Inhibitor Profiling Kit, thiopeptide substrate), MMP-9; type: biochemical; settings: panel of MMPs
T9 construct: the catalytic domains of the corresponding MMP were incubated in triplicate; purchased Enzo Life Science International, Inc
Protocol: as §5, §6

MMP-2 [5] = biological target: T2, MMP-2; assay: MMP inhibition assay (MMP Inhibitor Profiling Kit, thiopeptide substrate), MMP-2; type: biochemical; settings: catalytic domain, 37 °C, pH 7.5
Protocol: as §5
Enzyme reactions were carried out at 37 °C in a 100 μL final volume of solutions, where the catalytic domains of the corresponding MMP were incubated in triplicate with at least seven concentrations of inhibitors. The assay buffer contained the following components: 50 mM HEPES, 10 mM CaCl2 95, 0.05% Brij-35, and 1 mM DTNB at pH 7.5. After addition of the substrate, the increase of absorbance was recorded in 1 min time intervals for 30 min. Data were plotted as OD versus time for each sample to obtain the reaction velocity (V) in OD per min. The percentage of residual activity for each compound was calculated using the following formula: % of remaining activity = (V in the presence of inhibitor/Vcontrol) × 100. An inhibitor, NNGH, was included as a prototypic control inhibitor. IC50 calculations in MMP-13 and MMP-2 for active compounds are shown in Supplementary Materials (Figure S9)
The concentration of the compound that provided 50% inhibition of enzymatic activity (IC50) was determined by using semi-logarithmic dose–response plots (Graph Pad Prism 5.0 for Windows, Graph Pad Software Inc., San Diego, CA, USA, 2007).

MMP-1 = biological target: T10, MMP-1 (Homo sapiens, UniProt P03956); assay: MMP inhibition assay (MMP Inhibitor Profiling Kit, thiopeptide substrate), MMP-1; type: biochemical; settings: panel of MMPs
T10 construct: the catalytic domains of the corresponding MMP were incubated in triplicate; purchased Enzo Life Science International, Inc
T10 sequence (P03956 100-269 limits assumed): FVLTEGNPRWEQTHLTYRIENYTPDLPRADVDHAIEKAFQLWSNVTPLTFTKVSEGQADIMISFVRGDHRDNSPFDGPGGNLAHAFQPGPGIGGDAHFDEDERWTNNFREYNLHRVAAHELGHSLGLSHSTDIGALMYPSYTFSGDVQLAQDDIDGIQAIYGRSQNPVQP
Protocol: as §5, §6

MMP-13 = biological target: T11, MMP-13 (Homo sapiens, UniProt P45452); assay: MMP inhibition assay (MMP Inhibitor Profiling Kit, thiopeptide substrate), MMP-13; type: biochemical; settings: catalytic domain, 37 °C, pH 7.5
T11 construct: the catalytic domains of the corresponding MMP were incubated in triplicate; purchased Enzo Life Science International, Inc
Protocol: as §5, with “Proteolytic activity was measured using a thiopeptide substrate (Ac-PLG-[2-mercapto-4-methylpentanoyl]-LG-OC2H5) where the MMP cleavage site peptide bond has been replaced by a thioester bond.” left out
The assay buffer contained the following components: 50 mM HEPES, 10 mM CaCl2 95, 0.05% Brij-35, and 1 mM DTNB at pH 7.5. After addition of the substrate, the increase of absorbance was recorded in 1 min time intervals for 30 min. Data were plotted as OD versus time for each sample to obtain the reaction velocity (V) in OD per min. The percentage of residual activity for each compound was calculated using the following formula: % of remaining activity = (V in the presence of inhibitor/Vcontrol) × 100. An inhibitor, NNGH, was included as a prototypic control inhibitor.

T2 sequence (P08253 110-446 limits assumed): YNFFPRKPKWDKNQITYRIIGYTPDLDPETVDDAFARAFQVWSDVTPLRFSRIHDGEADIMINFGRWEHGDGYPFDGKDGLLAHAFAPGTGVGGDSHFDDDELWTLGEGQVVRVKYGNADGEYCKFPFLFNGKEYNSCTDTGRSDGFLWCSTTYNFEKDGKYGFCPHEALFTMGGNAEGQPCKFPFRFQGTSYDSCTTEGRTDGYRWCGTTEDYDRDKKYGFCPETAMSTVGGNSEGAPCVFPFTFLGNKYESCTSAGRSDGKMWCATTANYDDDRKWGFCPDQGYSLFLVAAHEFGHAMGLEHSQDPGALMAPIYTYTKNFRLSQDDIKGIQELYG
T7 sequence (P08254 100-272 limits assumed): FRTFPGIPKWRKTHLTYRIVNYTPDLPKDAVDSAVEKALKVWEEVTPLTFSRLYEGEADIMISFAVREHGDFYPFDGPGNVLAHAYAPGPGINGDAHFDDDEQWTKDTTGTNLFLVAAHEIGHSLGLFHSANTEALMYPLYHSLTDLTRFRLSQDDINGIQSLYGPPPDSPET
T3 sequence (P09238 99-263 limits assumed): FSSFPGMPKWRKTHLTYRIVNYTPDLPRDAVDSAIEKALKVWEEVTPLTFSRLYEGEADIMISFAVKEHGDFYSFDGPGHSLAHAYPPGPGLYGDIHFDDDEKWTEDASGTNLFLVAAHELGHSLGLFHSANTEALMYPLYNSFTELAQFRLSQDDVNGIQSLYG
T9 sequence (P14780 107-444 limits assumed): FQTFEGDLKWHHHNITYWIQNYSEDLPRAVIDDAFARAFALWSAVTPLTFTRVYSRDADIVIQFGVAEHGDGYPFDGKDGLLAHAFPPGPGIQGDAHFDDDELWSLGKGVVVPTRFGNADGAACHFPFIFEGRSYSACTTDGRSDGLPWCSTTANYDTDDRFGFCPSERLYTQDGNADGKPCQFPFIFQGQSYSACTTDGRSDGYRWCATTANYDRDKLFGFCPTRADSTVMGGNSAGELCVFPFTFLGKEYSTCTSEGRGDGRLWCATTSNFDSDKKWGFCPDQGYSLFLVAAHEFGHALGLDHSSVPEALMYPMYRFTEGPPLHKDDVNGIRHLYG
T6 sequence (P22894 100-262 limits assumed): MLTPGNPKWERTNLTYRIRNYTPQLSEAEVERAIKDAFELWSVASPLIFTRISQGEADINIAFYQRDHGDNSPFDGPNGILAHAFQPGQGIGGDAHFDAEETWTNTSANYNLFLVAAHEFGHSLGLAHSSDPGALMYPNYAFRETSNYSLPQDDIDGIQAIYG
T8 sequence (P39900 106-263 limits assumed): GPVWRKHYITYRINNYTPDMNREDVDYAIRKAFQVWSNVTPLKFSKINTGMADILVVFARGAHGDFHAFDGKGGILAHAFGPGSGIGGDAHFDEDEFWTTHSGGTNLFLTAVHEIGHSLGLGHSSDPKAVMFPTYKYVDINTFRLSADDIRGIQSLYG

Structure (SMILES) | solubility [3] [µM] | IC50 (MMP-2 [5]) [nM] | melting point | IC50 (MMP-13) [nM] | other results
O=C(NO)[C@@H](Cc1ccccc1)NS(=O)(=O)c1ccc(-c2ccccc2)cc1 [BiPS, (2R)-[(4-biphenylylsulfonyl)amino]-N-hydroxy-3-phenylpropionamide] |  |  |  |  | Interaction with the MMP-13 catalytic domain (WaterLOGSY) (MMP-13 catalytic domain): positive signals; IC50 [1]: 2.06 nM; IC50 [2]: 1.44 nM
O=C(NO)C1(S(=O)(=O)c2ccc(-n3cc(CCn4nc5c(Br)c(Br)c(Br)c(Br)c5n4)nn3)cc2)CCOCC1 [Compound 2] | 2.4 (≈ 1.95 µg/mL) |  |  |  | IC50 (MMP-2 [4]): 100 nM

Second part, led by results:

solubility [3] [µM] | IC50 (MMP-2 [5]) [nM] | melting point | IC50 (MMP-13) [nM] | Structure (SMILES) | other results
9.77 (≈ 5.2 µg/mL) | 3.42 ± 1.15 |  |  | O=C(NO)[C@@H](Cc1ccccc1)NS(=O)(=O)c1ccc(-n2cc(CCn3nc4ccccc4n3)nn2)cc1 [Compound 9a] | IC50 (MMP-10): 280 ± 22 nM; IC50 (MMP-14): > 1000 nM; IC50 (MMP-7): 47 ± 21 nM; IC50 (MMP-8): 100 ± 19 nM; IC50 (MMP-3): 31 ± 8 nM; IC50 (MMP-12): 3.7 ± 2 nM; IC50 (MMP-9): 500 ± 74 nM; IC50 (MMP-1): > 1000 nM
 | > 100 | 246 °C (dec.) | > 100 | O=C(O)[C@@H](Cc1ccccc1)NS(=O)(=O)c1ccc(-n2cc(CCn3nc4ccccc4n3)nn2)cc1 [Compound 9b, (R)-2-(4-(4-(2-(2H-benzo[d][1–3]triazol-2-yl)ethyl)-1H-1,2,3-triazol-1-yl)phenylsulfonamido)-3-phenylpropanoic acid] | 
 | > 100 | 227 to 228 °C | > 100 | O=C(O)[C@H](Cc1ccccc1)NS(=O)(=O)c1ccc(-n2cc(CCn3nc4ccccc4n3)nn2)cc1 [Compound 9c, (S)-2-(4-(4-(2-(2H-benzo[d][1–3]triazol-2-yl)ethyl)-1H-1,2,3-triazol-1-yl)phenylsulfonamido)-3-phenylpropanoic acid] | 
 | > 100 | 127 to 130 °C | > 100 | O=C(O)[C@@H](Cc1ccccc1)NS(=O)(=O)c1ccc(-n2cc(CCn3nc4c(Br)c(Br)c(Br)c(Br)c4n3)nn2)cc1 [Compound 9d, (R)-2-(4-(4-(2-(perbromo-2H-benzo[d][1–3]triazol-2-yl)ethyl)-1H-1,2,3-triazol-1-yl)phenylsulfonamido)-3-phenylpropanoic acid] | 
